The values below come from article PMC12724136, “Design of antibody structure-guided epitope vaccines in silico to induce potent immune responses against emerging viruses” (Journal of Virology, 2025).

In experiment [1] the test system is tilapia IgM. The experiment is described as follows: Serum antibody levels of tilapia after immunization with epitope peptides (ELISA). The format is in vivo, Nile tilapia (Oreochromis niloticus). The following applies: for immunogenicity (serum antibody titer) after single immunization: 20 µg peptide i.m. with Freund's adjuvant, 7-28 days; for immunogenicity (serum IgM antibody levels) after primary and booster immunization: 20 µg peptide i.m., booster after 14 days, 7-42 days. The source says:
Epitope vaccines usually need to be modified with Freund’s adjuvant (Beyotime) before immunization. Briefly, for a single immunization, the epitope peptide is mixed with an equal dose of complete Freund’s adjuvant and then administered to tilapia. For booster immunization, an equal dose of incomplete Freund’s adjuvant is fused with the epitope peptide before vaccination. For the S1, S3, and S10 epitope vaccine immunization programs, healthy Oreochromis niloticus were divided into six groups (70 fish per group) and vaccinated with 20 µg of peptide vaccine by intramuscular injection. During the 1–4 week immunization period, we collected four fish serum samples weekly for immunological analysis.
In the immunization experiments based on the P30-designed vaccine, healthy Nile tilapia were divided into four groups (70 fish per group) and injected intramuscularly with 20 µg of peptide vaccine to complete the primary immunization. After 14 days, the same dose of vaccine was administered again to complete the booster immunization. Serum and tissue samples were collected from 4 fishes in each group weekly after the primary immunization, for a total of 6 weeks. Furthermore, a PBS control was incorporated into both immunization experiments, and the immunization process was conducted in accordance with the aforementioned methodology.
Serum antibody levels after immunization were determined by indirect ELISA. Specifically, serum samples were diluted appropriately, coated to enzyme-labeled plates, and incubated overnight at 4°C. After being washed three times with PBST buffer, each well was incubated with mouse anti-tilapia IgM mAb (1:5,000) at 37°C for 1 h. After washing, each well was incubated with HRP-conjugated goat anti-mouse IgG (1:5,500) for an additional hour. Color development was carried out as described above.
(An ELISA detects its analyte on a solid surface through an enzyme-linked reagent.)

Experiment [2] deals with scFv1. The experiment in a line: Western blot, binding of S3 epitope peptide and mutants to GST-scFv1. Set-up: species or system Nile tilapia (Oreochromis niloticus). The conditions noted are these: PVDF membrane with GST-scFv1 incubated with S3 proteins 37°C 2 h; 6×His tag antibody. As to the method:
The PET-N-GST-scFv1 plasmid was constructed using seamless cloning technology (Vazyme), and the protein was obtained through a prokaryotic expression system. The scFv1 protein was purified using GST resin (Beyotime) and stored after lyophilization. Similarly, S3-WT, S3-MuT-^Y386^A, S3-MuT-^R393^A, S3-MuT-^L398^A, and S3-MuT were expressed in prokaryotes using the pET32a plasmid. In the Western blot experiment, after blocking, the PVDF membrane containing GST-scFv1 blots was incubated with each of the five S3 proteins at 37°C for 2 h. Subsequently, the anti-6×His tag mouse mAb was used as the primary antibody, and HRP-conjugated goat anti-mouse IgG was used as the secondary antibody. The ECL color development steps were performed as described above.
A general note: Immunoblotting shows a protein as a band on a membrane.

Experiment [3] has as its system TiLV-positive IgM. The experiment in a line: Indirect ELISA, affinity of synthetic peptides for TiLV-positive serum. The class given is binding, tilapia. The conditions noted are these: peptides 0.1 to 100 μg/mL. Here is the method:
The indirect ELISA was used to determine the affinity of synthetic peptides for the scFv1 protein and TiLV-positive serum. For the affinity detection of scFv1, the synthetic peptides were diluted at different concentrations (0.01–100 μg/mL) and coated in a microplate. After blocking, scFv1 protein (50 µg/mL) was added and incubated for 2 h at 37°C. In order to reduce the interference of non-specific binding, 50 µg/mL of BSA protein was used as a control for the analysis of binding to the antigenic peptides. Subsequently, 100 µL of 6×His-tag mouse mAb was added to each well and incubated for 1 h, followed by the addition of 100 µL of HRP-conjugated goat anti-mouse IgG for another hour. The color development and OD measurements were performed as described previously. For the affinity detection of serum, 100 µL of positive serum (1:200) was added to each well. The primary antibody was then replaced with mouse anti-tilapia IgM mAb (Frdbio), while all other steps remained unchanged.

The subject of experiment [4] is scFv1. The experiment is described as follows: Yeast two-hybrid assay of epitope peptides with scFv1. The class given is cell-based, Nile tilapia (Oreochromis niloticus). The conditions noted are these: pGBKT-scFv1 bait, pGADT-peptide; Y2Hgold; 96 h. Here is the method:
The pGBKT-scFv1 bait plasmid was transformed into Y2Hgold yeast competent cells (WEIDI) and cultured in SD-deficient medium (Beijing Zoman Biotechnology Co., Ltd.) to confirm the absence of self-activation. Subsequently, pGADT-P30, pGADT-S390F, and pGADT-G394K plasmids, along with the pGBKT-scFv1 bait plasmid, were co-transformed into Y2Hgold yeast competent cells. The cells were then cultured on LT-deficient SD and LTHA-deficient SD medium for 48–96 h to observe the expression of the reporter genes. Additionally, the pGADT-T plasmid was co-transformed with the pGBKT-53 and pGBKT-lam plasmids and cultured as positive and negative controls, respectively.

The subject of experiment [5] is scFv1. The experiment is described as follows: Cellular co-localization of epitope peptides with scFv1 in HEK293T cells. The class given is cell-based, Nile tilapia (Oreochromis niloticus). The following applies: pEGFP-peptide and pCMV-DsRed-scFv1 in HEK293T, 48 h, confocal. As to the method: The pEGFP-P30, S390F, and G394K plasmids, along with the pCMV-C-DsRed-scFv1 plasmid, were co-transfected into HEK293T cells and cultured for 48 h. Afterward, the cells were fixed with 4% paraformaldehyde, permeabilized, and stained with DPAI (Beyotime), which contains an anti-fluorescence quencher. The expression and co-localization of proteins in cells were observed using confocal fluorescence microscopy.

Experiment [6] concerns scFv1. The experiment is described as follows: Co-immunoprecipitation of epitope peptides with scFv1 in HEK293T cells. The format is cell-based, Nile tilapia (Oreochromis niloticus). The following applies: for Co-IP with scFv1, His-tag system: His-tagged peptide and Flag-scFv1 co-transfected in HEK293T; for Co-IP with scFv1, GFP tag system: pEGFP-peptide and pCMV-Flag-scFv1 co-transfected in HEK293T, 48 h. As to the method:
Protein samples were extracted following the co-transfection of HEK293T cells with plasmids containing P30, S390F, G394K, and scFv1 for 48 h, respectively. Subsequent Co-IP assays were performed using the kit (Beyotime) in accordance with the provided protocol. In brief, TBS-washed protein A + G magnetic beads were incubated with GFP-tagged IgG2a mAb (1:3,000, Proteintech) for 1 h at room temperature. Subsequently, the samples were incubated at 4°C overnight. Following the washing of the beads with cell lysates containing protease inhibitors, protein elution was completed with SDS-PAGE loading buffer (Solarbio) for protein blotting. In the Western blot analysis, the GFP-tagged IgG2a mAb (1:3,000) and the Flag-tagged mouse mAb (1:2,000, Beyotime) were employed to identify the IP and input protein samples, respectively. Furthermore, all samples were characterized with a reference protein antibody (β-actin) as a standard control. Enzyme-labeled secondary antibodies consisted of HRP-conjugated goat anti-mouse IgG (1:4,000). The bands were visualized using the ECL Plus hypersensitive luminescent solution (Solarbio) and photographed with a chemiluminescence program. In addition, the His tag system was also used to verify the interaction between epitope peptides, such as P30 and scFv1. Plasmids encoding P30, S390F, and G394K fused with His tags and the plasmid encoding scFv1 fused with a Flag tag were co-transfected into HEK293T cells, respectively. The His-tag monoclonal antibody (1:500, Proteintech) was bound to A + G magnetic beads and used to detect the interaction, and all other operation steps were performed as described above.

Experiment [7] deals with T1, S390F epitope peptide (P30 with S390F), synthetic (tilapia lake virus (TiLV), S390F (stands in the printed letters)).
T1 construct: source: synthetic peptide (solid phase, SynthBio)
T1 peptide: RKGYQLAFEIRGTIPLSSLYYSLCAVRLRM
The experiment is described as follows: SPR. The following applies: both partners purified.

Experiment [8] addresses T2, S10-Mut epitope peptide (S10 55–66, alanine mutant) (tilapia lake virus (TiLV)).
T2 construct: source: synthetic peptide (solid phase, SynthBio)
T2 peptide: NIEAGAAVALEM
The experiment is described as follows: ELISA. The conditions noted are these: both partners purified.

The target of experiment [9] is T3, S3-WT epitope peptide (S3 385–400) (tilapia lake virus (TiLV)).
T3 construct: source: synthetic peptide (solid phase, SynthBio)
T3 peptide: GYQLASEIRGTIPLSS
The experiment in a line: ELISA. The following applies: both partners purified.

Experiment [10] concerns the target T4, S1-WT epitope peptide (S1 231–250) (tilapia lake virus (TiLV)).
T4 construct: source: synthetic peptide (solid phase, SynthBio)
T4 peptide: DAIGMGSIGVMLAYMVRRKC
The experiment is described as follows: ELISA. The following applies: both partners purified.

Experiment [11] has as its target T5, S10-WT epitope peptide (S10 55–66) (tilapia lake virus (TiLV)).
T5 construct: source: synthetic peptide (solid phase, SynthBio)
T5 peptide: NIEWGDEVDLEM
The experiment is described as follows: ELISA. The conditions noted are these: both partners purified.

Experiment [12] concerns the target T6, S1-Mut epitope peptide (S1 231–250, alanine mutant) (tilapia lake virus (TiLV)).
T6 construct: source: synthetic peptide (solid phase, SynthBio)
T6 peptide: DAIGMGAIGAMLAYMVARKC
The experiment is described as follows: ELISA. The conditions noted are these: both partners purified.

As to DAIGMGAIGAMLAYMVARKC [S1MuT], the “immunogenicity (serum antibody titer) after single immunization” value (from here on “immunogenicity (serum antibody titer)”) in experiment [1] is listed as “lower antibody stimulation level”.

As for DAIGMGSIGVMLAYMVRRKC [S1WT], in experiment [1], the “immunogenicity (serum antibody titer)” value is reported as “robust immune responses”.

For the molecule GAQLASEIAGTIPASS [S3MuT], the “immunogenicity (serum antibody titer)” value in experiment [1] was “lower antibody stimulation level”. The “binding to GST-scFv1 by Western blot” value in experiment [2] is listed as “did not show the protein”.

NIEAGAAVALEM [S10MuT]: in experiment [1], the “immunogenicity (serum antibody titer)” value was “lower antibody stimulation level”.

As to NIEWGDEVDLEM [S10WT], in experiment [1], the “immunogenicity (serum antibody titer)” value is listed as “robust immune responses”.

With RKGYQLASEIRGFIPLSSLYYSLCAVRLRM [T395F], in experiment [1], the “immunogenicity (serum IgM antibody levels) after primary and booster immunization” value was “failed to show significantly improved immunogenicity”. For the same molecule, the “affinity to TiLV-specific positive serum” value in [3] is listed as “did not show improved affinity compared to P30”.

RKGYQLASEIRGTIPLSSLYYSLCAVRLRM [P30]: in experiment [4], the “yeast two-hybrid growth on LTHA-deficient SD medium” value is reported as “exhibited plaque growth”. The “co-localization with scFv1 in cells” value in experiment [5] is “co-localized with the antibody”. Further, in experiment [6], the “Co-IP with scFv1, His-tag system” value was “showed interactions with scFv1” and the “Co-IP with scFv1, GFP tag system” value was “able to bind to the antibody”.

As to RKGYQLASEIRGTIPLSSLYYYLCAVRLRM [S404Y], the “immunogenicity (serum IgM antibody levels) after primary and booster immunization” value in experiment [1] was “failed to show significantly improved immunogenicity”. Besides, the “affinity to TiLV-specific positive serum” value in experiment [3] was “did not show improved affinity compared to P30”.

Regarding RKGYQLASEIRKTIPLSSLYYSLCAVRLRM [G394K], the “yeast two-hybrid growth on LTHA-deficient SD medium” value in [4] was “did not exhibit any growth”. The “co-localization with scFv1 in cells” value in experiment [5] is “failed to bind to the antibody”. Further, in [6], the “Co-IP with scFv1, His-tag system” value is reported as “did not” and the “Co-IP with scFv1, GFP tag system” value was “negative in the Co-IP reaction”.

B1: scFv1, prokaryote-expressed (pET32a-scFv1) (scFv)
scFv: MSHRLTCAYSGFSSDIHAVWVRQAAGKGLEWIAYISDSSAYIYYSQSVRGRFTISRDNSRKQVYLQMNSLTTEDSAVYYCTREGSGFAFDYWGKGTGGGGSGGGGSGGGGSVTISATGSSNIGADLSWYLQKTGETPKLLIYKASTRSSGTPPRFSGSTSGSQYTLTISGVQAEDAGDYYCLGDHGGGALTFGGGTK
notes: also called antibody scFv1; source: E. coli BL21, prokaryotic expression (pET32a-scFv1); freeze-dried, dissolved in PBS
For B1, the affinity in [7], expressed as Kd, was 573 nM. For the same molecule, the binding result in experiment [8], in [9], in experiment [10], in [11] and in experiment [12] was “binds” each time.

B2: scFv1, expressed in CHO cells (pcDNA3.1-scFv1) (scFv)
scFv: B1 scFv
notes: also called eukaryote-expressed scFv1; source: CHO cells, eukaryotic expression (pcDNA3.1-scFv1)
Turning to B2, the binding result in experiment [8], in experiment [9], in experiment [10], in experiment [11] and in experiment [12] was “binds” throughout.
